Test results as given in PMC8421423, “Cellular model system to dissect the isoform-selectivity of Akt inhibitors” (Nature Communications, 2021).
“And” between values parts separate entries of the source, which are not always exact repeats. Equal entries are not always repeated. Where two headings read alike, the source gives them in different places.

Assays:
[1] = test system: parental Ba/F3 cells; assay: CellTiter-Glo cell viability assay; format: cell-based, murine
[2] = test system: pAkt^S473 and downstream targets in Ba/F3 myr-Akt1; details: Ba/F3 myr-Akt1, 4-h treatment
[3] = test system: Ba/F3^myr-Akt1 cells; assay: CellTiter-Glo cell viability assay; details: for Log ratio EC50 [Akt] / EC50 [Akt], Akt1 / Akt2: cell viability assay Ba/F3 myr-Akt cells, log units
Method: On day 0, cells were plated into white 384-well cell culture plates (Greiner Bio-One) using a Multidrop reagent dispenser (Thermo Fisher Scientific) at cell numbers that ensure linear and optimal luminescent signal intensity (Ba/F3myr-Akt1: 600 cells/well, Ba/F3myr-Akt2: 800 cells/well, Ba/F3myr-Akt3: 800 cells/well). […] Cell viability was analyzed on day 4 using the CellTiter-Glo Assay (Promega) as per the manufacturer’s instructions. […] All experimental points were measured in duplicates for each plate and were replicated in at least three plates.

[4] = test system: Ba/F3^myr-Akt2 cells; assay: CellTiter-Glo cell viability assay
[5] = test system: Ba/F3^myr-Akt3 cells; assay: CellTiter-Glo cell viability assay; details: for Log ratio EC50 [Akt] / EC50 [Akt], Akt3 / Akt2: cell viability assay Ba/F3 myr-Akt cells, log units
[6] = biological target: T1, Akt1 (Homo sapiens, UniProt P31749); assay: STK HTRF KinEASE activity-based assay (IC50); details: for Log ratio IC50 [Akt] / IC50 [Akt], Akt1 / Akt2: biochemical activity based assay, log units
T1 sequence (P31749 whole entry): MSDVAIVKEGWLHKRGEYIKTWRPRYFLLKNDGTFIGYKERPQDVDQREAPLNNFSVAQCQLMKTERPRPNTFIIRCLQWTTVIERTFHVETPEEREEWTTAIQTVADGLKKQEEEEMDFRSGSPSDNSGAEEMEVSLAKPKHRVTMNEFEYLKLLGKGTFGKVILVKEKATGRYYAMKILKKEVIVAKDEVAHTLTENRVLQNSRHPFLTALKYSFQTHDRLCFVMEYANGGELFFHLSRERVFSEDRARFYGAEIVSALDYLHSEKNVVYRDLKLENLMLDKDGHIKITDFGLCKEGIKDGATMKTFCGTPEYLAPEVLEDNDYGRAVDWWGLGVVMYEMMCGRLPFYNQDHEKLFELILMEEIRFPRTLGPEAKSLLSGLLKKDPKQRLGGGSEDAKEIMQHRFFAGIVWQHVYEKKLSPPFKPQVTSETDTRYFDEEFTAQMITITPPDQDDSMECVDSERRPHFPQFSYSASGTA

[7] = biological target: T2, Akt2 (Homo sapiens, UniProt P31751); assay: STK HTRF KinEASE activity-based assay (IC50)
T2 sequence (P31751 whole entry): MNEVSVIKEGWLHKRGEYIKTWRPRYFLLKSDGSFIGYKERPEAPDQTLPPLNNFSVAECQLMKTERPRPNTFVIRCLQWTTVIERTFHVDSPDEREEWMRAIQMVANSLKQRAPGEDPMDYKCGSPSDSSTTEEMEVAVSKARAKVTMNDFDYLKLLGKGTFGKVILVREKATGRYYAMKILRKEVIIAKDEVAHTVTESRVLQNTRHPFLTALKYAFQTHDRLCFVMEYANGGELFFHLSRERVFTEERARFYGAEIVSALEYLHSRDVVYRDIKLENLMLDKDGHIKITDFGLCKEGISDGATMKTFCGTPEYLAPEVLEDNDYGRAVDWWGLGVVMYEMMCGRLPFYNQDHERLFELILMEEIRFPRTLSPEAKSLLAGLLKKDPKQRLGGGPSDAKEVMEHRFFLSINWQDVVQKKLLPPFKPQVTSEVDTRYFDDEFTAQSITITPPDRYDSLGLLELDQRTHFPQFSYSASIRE

[8] = biological target: T3, Akt3 (Homo sapiens, UniProt Q9Y243); assay: STK HTRF KinEASE activity-based assay (IC50)
T3 sequence (Q9Y243 whole entry): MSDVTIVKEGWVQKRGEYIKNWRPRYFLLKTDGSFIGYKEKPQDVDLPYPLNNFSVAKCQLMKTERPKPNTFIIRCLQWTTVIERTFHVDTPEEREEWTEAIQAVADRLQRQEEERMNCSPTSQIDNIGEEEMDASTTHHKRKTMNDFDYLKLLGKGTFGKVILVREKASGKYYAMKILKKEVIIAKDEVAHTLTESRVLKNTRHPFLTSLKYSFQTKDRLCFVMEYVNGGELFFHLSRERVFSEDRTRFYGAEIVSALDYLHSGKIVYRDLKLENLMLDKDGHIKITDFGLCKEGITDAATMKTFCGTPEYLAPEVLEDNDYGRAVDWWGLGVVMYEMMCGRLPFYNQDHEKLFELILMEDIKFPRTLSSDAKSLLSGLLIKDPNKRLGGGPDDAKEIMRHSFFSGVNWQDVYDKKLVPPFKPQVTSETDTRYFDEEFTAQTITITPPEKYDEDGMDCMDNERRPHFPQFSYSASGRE

[9] = biological target: T2, Akt2; assay: PhosphoSens continuous fluorometric kinetic enzyme assay
Method: (§1) By addition of either 8 nM Akt1, 2 nM Akt2, or 5 nM Akt3 (final concentrations) the reactions were initiated. […] Afterwards the kobs-values were plotted versus the inhibitor concentrations [I] and then fit to the following hyperbolic Eq.

[10] = biological target: T3, Akt3; assay: as above
Method: as §1

[11] = biological target: T1, Akt1; assay: as above
Method: as §1

[12] = Mus musculus, BaF3, parental cells, mean of replicates, read-out: CTG BaF3, Mean
[13] = parental cells, single replicates, read-out: CTG BaF3, individual determinations
[14] = Mus musculus, read-out: CTG BaF3myr-Akt1, Mean, mean of replicates
[15] = Mus musculus, read-out: CTG BaF3myr-Akt1, individual determinations, single replicates
[16] = read-out: CTG BaF3myr-Akt1, individual determinations, single replicates
[17] = Mus musculus, read-out: CTG BaF3myr-Akt2, Mean, mean of replicates
[18] = Mus musculus, read-out: CTG BaF3myr-Akt2, individual determinations, single replicates
[19] = read-out: CTG BaF3myr-Akt2, individual determinations, single replicates
[20] = Mus musculus, BaF3, parental cells, single replicates, read-out: CTG BaF3, individual determinations
[21] = Mus musculus, read-out: CTG BaF3myr-Akt3, Mean, mean of replicates
[22] = Mus musculus, read-out: CTG BaF3myr-Akt3, individual determinations, single replicates
[23] = read-out: CTG BaF3myr-Akt3, individual determinations, single replicates
[24] = HTRF IC50 Akt1, individual determinations, single replicates
[25] = IC50 Akt1, HTRF, ATP at KM, 1 h preincubation
[26] = HTRF IC50 Akt2, Mean, mean of replicates
[27] = HTRF IC50 Akt2, individual determinations, single replicates
[28] = IC50 Akt2, HTRF, ATP at KM, 1 h preincubation
[29] = HTRF IC50 Akt3, individual determinations, single replicates
[30] = IC50 Akt3, HTRF, ATP at KM, 1 h preincubation
[31] = Ki Akt2, Mean, mean of replicates
[32] = Ki Akt2, individual determinations, single replicates
[33] = read-out: kinact Akt2, individual determinations, single replicates

Structure (SMILES) | EC50 [1, 12] | EC50 [1, 13] | EC50 [3, 14] | EC50 [3, 15] | EC50 [3, 16] | EC50 [4, 17] | EC50 [4, 18] | EC50 [4, 19] | EC50 [1, 20] | Log ratio EC50 [Akt] / EC50 [Akt], Akt1 / Akt2 [3] | EC50 [5, 21] | EC50 [5, 22] | Log ratio EC50 [Akt] / EC50 [Akt], Akt3 / Akt2 [5] | EC50 [5, 23] | IC50 [6, 24] | IC50 [6, 25] | Log ratio IC50 [Akt] / IC50 [Akt], Akt1 / Akt2 [6] | IC50 [7, 26] | IC50 [7, 27] | IC50 [7, 28] | further results
NC1(C(=O)N[C@@H](CCO)c2ccc(Cl)cc2)CCN(c2ncnc3[nH]ccc23)CC1 [Capivasertib, reference compound] | 16 µM | 11 µM and 13.9 µM and 23 µM | 1.07 µM | 1.29 µM | 0.706 µM and 1.2 µM and 1.1 µM | 0.938 µM | 1.14 µM | 1.07 µM and 0.6 µM | – | – | – | – | – | – | – | – | – | – | – | – | pAkt and downstream targets (immunoblot) [2]: less effective
C=CC(=O)Nc1ccc2[nH]c(=O)n(C3CCN(Cc4ccc(-c5ncc(Cc6cccnc6)cc5-c5ccccc5)cc4)CC3)c2c1 [compound 21] | 14.7 µM | 11.7 µM and 14.3 µM | 19.7 µM | 21.2 µM | 13.3 µM and 24.6 µM | 2.23 µM | 2.02 µM | 2.49 µM and 2.19 µM | 18.2 µM | 0.95 | 6.52 µM | 5.55 µM | -0.46 | 6.27 µM and 7.12 µM | 1.82 µM and 2.04 µM and 2.47 µM and 0.858 µM | 2.11 ± 0.268 µM | 1.30 | 0.0985 µM | 0.0929 µM and 0.124 µM and 0.104 µM | 0.099 ± 0.006 µM | IC50 ([6]; HTRF IC50 Akt1, Mean, mean of replicates): 1.8 µM; IC50 [8, 29]: 0.233 µM and 0.416 µM and 0.225 µM and 0.214 µM; IC50 [8, 30]: 0.272 ± 0.084 µM; Ki ([9]; Ki Akt2): 0.021 ± 0.005 µM; Ki [9, 31]: 0.0213 µM; Ki [9, 32]: 0.0272 µM and 0.0156 µM; kinact/KI ([9]; read-out: kinact /Ki Akt2): 12000 ± 5000 M⁻¹ s⁻¹; kinact ([9]; read-out: kinact Akt2): 0.000233 s⁻¹; kinact [9, 33]: 0.000267 s⁻¹; kinact Akt2, individual determinations ([9]; single replicates): 0.017 min⁻¹ and 0.009 min⁻¹; Ki ([10]; Ki Akt3): 0.064 ± 0.004 µM; Ki ([10]; Ki Akt3, Mean, mean of replicates): 0.0638 µM; Ki ([10]; Ki Akt3, individual determinations, single replicates): 0.0626 µM and 0.0693 µM and 0.0594 µM; kinact/KI ([10]; read-out: kinact /Ki Akt3): 8000 ± 1000 M⁻¹ s⁻¹; kinact/KI ([10]; read-out: kinact /Ki Akt3, individual determinations, single replicates): 7000 M⁻¹ s⁻¹; kinact ([10]; read-out: kinact Akt3): 0.000517 s⁻¹; kinact ([10]; read-out: kinact Akt3, Mean, mean of replicates): 0.000517 s⁻¹; kinact ([10]; read-out: kinact Akt3, individual determinations, single replicates): 0.000433 s⁻¹; kinact /Ki Akt3, individual determinations ([10]; single replicates): 0.009; kinact Akt3, individual determinations ([10]; single replicates): 0.037 min⁻¹ and 0.031 min⁻¹
C=CC(=O)Nc1ccc2[nH]c(=O)n(C3CCN(Cc4ccc(-c5ncc(Cn6ccnc6)cc5-c5ccccc5)cc4)CC3)c2c1 [compound 11] | > 30 µM | > 30 µM | – | 28.2 µM | 27.1 µM and > 30 µM (2×) | 2.69 µM | 3.19 µM | 2.51 µM and 2.37 µM | > 30 µM | 1.03 | 18.6 µM | 18.3 µM | -0.84 | 13.7 µM and 17.7 µM and 24.6 µM | 0.778 µM and 0.571 µM and 0.58 µM | 0.643 ± 0.095 µM | 0.93 | 0.0761 µM | 0.0782 µM and 0.0618 µM and 0.0883 µM | 0.076 ± 0.011 µM | EC50 ([1]; Mus musculus, BaF3, CTG, parental BaF3 cell line, read-out: EC50 BaF3): > 30 µM; IC50 ([8]; HTRF IC50 Akt3, Mean, mean of replicates): 1.89 µM; IC50 [8, 29]: 1.36 µM and 1.74 µM and 2.57 µM; IC50 [8, 30]: 1.89 ± 0.621 µM; Ki ([11]; Ki Akt1): 0.009 ± 0.002 µM; kinact/KI ([11]; read-out: kinact /Ki Akt1): 26000 ± 2000 M⁻¹ s⁻¹; kinact ([11]; read-out: kinact Akt1): 0.0002 s⁻¹; Ki ([9]; Ki Akt2): 0.011 ± 0.001 µM; Ki [9, 31]: 0.0102 µM; Ki [9, 32]: 0.0089 µM and 0.0113 µM and 0.0103 µM; kinact/KI ([9]; read-out: kinact /Ki Akt2): 20000 ± 4000 M⁻¹ s⁻¹; kinact/KI ([9]; read-out: kinact /Ki Akt2, Mean, mean of replicates): 20000 M⁻¹ s⁻¹; kinact/KI ([9]; read-out: kinact /Ki Akt2, individual determinations, single replicates): 25000 M⁻¹ s⁻¹; kinact ([9]; read-out: kinact Akt2): 0.0002 s⁻¹; kinact [9, 33]: 0.000217 s⁻¹; kinact Akt2, individual determinations ([9]; single replicates): 0.013 min⁻¹ and 0.009 min⁻¹
